According to article PMC12196264, “Design and Synthesis of Pyridine-Based Pyrrolo[2,3-d]pyrimidine Analogs as CSF1R Inhibitors: Molecular Hybridization and Scaffold Hopping Approach” (Pharmaceuticals, 2025):
Converted amounts (≈) assume the structure as drawn.

What was measured:
CSF1R = CSF1R (Homo sapiens, UniProt P07333); test: CSF1R enzymatic inhibitory assay (TR-FRET LANCE Ultra); type: biochemical; conditions: single eight-point titrations, ATP 25 μM, R^2 of fit in parentheses
Procedure: The TR-FRET-based LANCE Ultra assay (Perkin Elmer, Waltham, MA, USA) was used to determine IC50 values for various CSF1R inhibitors. Kinase activity and inhibition in this assay was measured as previously reported. Scigilian Analyze software version 5.8.5.15 (Scigilian, Montreal, QC, Canada) was used.

cKIT = cKIT (Homo sapiens, UniProt P10721); test: KIT-WT LanthaScreen binding assay (Kd); conditions: single eight-point titrations, TR-FRET LanthaScreen Binding Assay; R^2 of fit in parentheses; read-out: Enzymatic Assay KIT (Kd)
Procedure: The TR-FRET-based LanthaScreen Binding Assay was performed to determine Kd values of synthesized derivatives against cKIT.
Subsequently, 8 µL of kinase anti-GST antibody mixture was added, followed by incubation at 4 °C for 30 min in a pre-cooled, humidified box to minimize edge effects. The reaction was initiated by adding 5 µL of tracer working solution and mixed on a Bioshake 5000 microplate shaker (Q Instruments, Jena, Germany). […] Kd values were calculated from sigmoidal dose-response curves using Scigilian Analyze software version 5.8.5.15 (Scigilian, Montreal, QC, Canada).

[1] = system: Ba/F3 cells engineered to be dependent on CSF1R; test: Cell viability assay with Ba/F3-hCSF1R cells; type: cell-based; conditions: for IC50: Mus musculus, BaF3, Ba/F3 cells dependent on CSF1R, with standard deviation, read-out: Cellular Assay IC50 (μM), Ba/F3 CSF1R
Procedure: (§1) Given the promising enzymatic activity of the synthesized derivatives, cellular assays were performed using Ba/F3 cells engineered to depend on constitutively active CSF1R. […] We have also previously observed a low correlation between enzymatic and cellular activities, which may arise from the enzymatic protein construct not accurately mimicking the active conformation of CSF1R in a cellular context.
(§2) Performed as reported previously.

[2] = system: Ba/F3 cells engineered to be dependent on CSF1R but added additional IL-3; test: Cell viability assay with Ba/F3-hCSF1R cells with added IL-3; type: cell-based; conditions: Mus musculus, BaF3; Ba/F3 CSF1R cells with additional IL-3; read-out: Cellular Assay IC50 (μM), Ba/F3 IL-3
Procedure: as §1, §2

Kinetic solubility = type: physicochemical; conditions: aqueous buffer, kinetic from dmso stock; spectrophotometric, pH 7.4 in HEPES buffer
Procedure: (§3) The aqueous solubility of the compounds and metabolic stability under oxidative conditions was performed as described previously.

[3] = Microsomal stability, mouse liver microsomes; type: in vitro ADME; conditions: mouse liver microsome
Procedure: as §3

MDCK permeability assay = type: in vitro ADME, canine; conditions: dog, MDCK monolayer; for Papp A→B: A–B direction; for Papp B→A: B–A direction; for efflux ratio: read-out: MDCK Ratio (Papp B–A/A–B)
Procedure: Six selected compounds were assessed for metabolic stability (clearance) in mouse liver microsomes (MLM) and human liver microsomes (HLM), and apparent permeability (Papp) using a MDCK permeability assay. […] Although currently limited by solubility and permeability, its metabolic profile provides a starting point for targeted structural modifications aimed at overcoming these challenges.

Chain of CSF1R (P07333 20-972): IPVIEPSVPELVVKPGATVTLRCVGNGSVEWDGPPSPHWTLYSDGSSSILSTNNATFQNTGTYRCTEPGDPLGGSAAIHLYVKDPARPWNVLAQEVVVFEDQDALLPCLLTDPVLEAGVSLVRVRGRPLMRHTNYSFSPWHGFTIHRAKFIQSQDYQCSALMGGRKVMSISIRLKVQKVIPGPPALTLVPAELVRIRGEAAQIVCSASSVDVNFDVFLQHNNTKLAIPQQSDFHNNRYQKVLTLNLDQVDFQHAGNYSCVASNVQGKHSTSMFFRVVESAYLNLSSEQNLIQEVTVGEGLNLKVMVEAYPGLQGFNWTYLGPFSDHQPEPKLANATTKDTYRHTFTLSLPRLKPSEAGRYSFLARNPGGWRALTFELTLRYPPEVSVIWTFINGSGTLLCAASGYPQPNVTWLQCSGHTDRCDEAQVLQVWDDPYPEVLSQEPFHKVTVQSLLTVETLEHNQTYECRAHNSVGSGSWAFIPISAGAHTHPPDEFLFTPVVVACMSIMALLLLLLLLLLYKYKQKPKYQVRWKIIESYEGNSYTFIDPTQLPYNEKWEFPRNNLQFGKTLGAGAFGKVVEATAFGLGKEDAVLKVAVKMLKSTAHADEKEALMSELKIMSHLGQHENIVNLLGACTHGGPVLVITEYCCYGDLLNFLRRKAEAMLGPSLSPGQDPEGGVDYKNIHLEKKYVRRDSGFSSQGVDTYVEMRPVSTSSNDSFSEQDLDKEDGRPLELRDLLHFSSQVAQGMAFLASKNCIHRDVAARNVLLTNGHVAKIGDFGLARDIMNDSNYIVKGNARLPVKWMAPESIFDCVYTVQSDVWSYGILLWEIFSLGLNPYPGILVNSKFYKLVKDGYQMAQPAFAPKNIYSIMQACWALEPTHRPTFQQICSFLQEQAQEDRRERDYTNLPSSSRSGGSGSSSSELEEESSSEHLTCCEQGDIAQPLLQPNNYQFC
Chain of cKIT (P10721 26-976): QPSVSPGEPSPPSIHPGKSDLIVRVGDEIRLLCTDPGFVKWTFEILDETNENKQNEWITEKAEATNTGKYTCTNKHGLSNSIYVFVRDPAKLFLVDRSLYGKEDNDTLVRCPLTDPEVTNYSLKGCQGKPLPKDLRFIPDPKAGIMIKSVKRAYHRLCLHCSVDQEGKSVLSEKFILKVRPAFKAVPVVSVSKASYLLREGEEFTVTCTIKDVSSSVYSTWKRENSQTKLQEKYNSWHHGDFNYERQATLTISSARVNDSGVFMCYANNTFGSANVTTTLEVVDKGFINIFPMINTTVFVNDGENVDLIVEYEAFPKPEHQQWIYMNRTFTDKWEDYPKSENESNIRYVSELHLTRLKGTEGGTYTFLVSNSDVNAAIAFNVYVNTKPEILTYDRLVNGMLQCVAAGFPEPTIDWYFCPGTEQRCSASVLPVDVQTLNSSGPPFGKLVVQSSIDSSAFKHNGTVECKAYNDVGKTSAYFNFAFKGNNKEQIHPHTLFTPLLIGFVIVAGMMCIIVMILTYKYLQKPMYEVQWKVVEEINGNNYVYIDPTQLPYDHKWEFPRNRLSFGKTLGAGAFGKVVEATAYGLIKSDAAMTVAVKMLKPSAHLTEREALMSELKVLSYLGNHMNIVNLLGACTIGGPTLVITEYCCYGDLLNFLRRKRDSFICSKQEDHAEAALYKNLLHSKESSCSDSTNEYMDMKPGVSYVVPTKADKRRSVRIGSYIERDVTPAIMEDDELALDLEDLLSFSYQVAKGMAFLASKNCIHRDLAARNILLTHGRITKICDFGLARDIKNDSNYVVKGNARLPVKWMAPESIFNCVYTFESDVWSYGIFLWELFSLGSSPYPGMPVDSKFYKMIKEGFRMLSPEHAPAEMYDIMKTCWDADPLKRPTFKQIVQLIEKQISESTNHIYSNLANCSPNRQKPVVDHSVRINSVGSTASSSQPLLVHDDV

Compound | IC50 (CSF1R) | Kd (cKIT) | IC50 [1] | IC50 [2] | solubility kinetic (Kinetic solubility) | MLM in vitro intrinsic clearing [3] | Papp A→B (MDCK permeability assay) | Papp B→A (MDCK permeability assay) | efflux ratio (MDCK permeability assay) | Cellular activity in Ba/F3 CSF1R cells (in words) ([1]; Ba/F3 cells dependent on constitutively active CSF1R)
CN(Cc1ccc(NCc2ccccc2)nc1)c1ncnc2[nH]ccc12 [Compound 4a, N-((6-(Benzylamino)pyridin-3-yl)methyl)-N-methyl-7H-pyrrolo[2,3-d]pyrimidin-4-amine] | 857 nM | > 1000 nM | 1.16 ± 0.22 µM | 1.39 ± 0.4 µM | 20.9 µM (≈ 7.2 µg/mL) | 277.3 µL/min/mg | 34 ×10⁻⁶ cm/s | 24.7 ×10⁻⁶ cm/s | 0.72 | relatively high cellular activity
CN(Cc1ccc(NCc2ccc(C(F)(F)F)nc2)nc1)c1ncnc2[nH]ccc12 [Compound 4c, N-Methyl-N-((6-(((6-(trifluoromethyl)pyridin-3-yl)methyl)amino)pyridin-3-yl)methyl)-7H-pyrrolo[2,3-d]pyrimidin-4-amine] | > 1000 nM | > 1000 nM | 9.96 ± 0.02 µM | > 10 µM | 20.9 µM (≈ 8.64 µg/mL) | 150.7 µL/min/mg | 18.3 ×10⁻⁶ cm/s | 10 ×10⁻⁶ cm/s | 0.55 | –
FC(F)(F)c1ccc(CNc2ccc(Cc3c[nH]c4ncc(Cl)cc34)cn2)cn1 [Pexidartinib, reference compound] | – | – | 0.064 ± 0.04 µM | 6.54 ± 0.61 µM | 20.5 µM (≈ 8.57 µg/mL) | – | 4.5 ×10⁻⁶ cm/s | 1.5 ×10⁻⁶ cm/s | – | –
CN(Cc1ccc(NCc2ccccn2)nc1)c1ncnc2[nH]ccc12 [Compound 4b, N-Methyl-N-((6-((pyridin-2-ylmethyl)amino)pyridin-3-yl)methyl)-7H-pyrrolo[2,3-d]pyrimidin-4-amine] | > 1000 nM | > 1000 nM | > 10 µM | > 10 µM | 441 µM (≈ 152 µg/mL) | 101.9 µL/min/mg | 42 ×10⁻⁶ cm/s | 28.8 ×10⁻⁶ cm/s | 0.69 | –
Cc1cccc(CN(C)c2ncnc3[nH]cc(-c4ccc(NCc5cccnc5)nc4)c23)c1 [Compound 8, N-Methyl-N-(3-methylbenzyl)-5-(6-((pyridin-3-ylmethyl)amino)pyridin-3-yl)-7H-pyrrolo[2,3-d]pyrimidin-4-amine] | > 1000 nM | 397 nM | 8.46 ± 0.89 µM | > 10 µM | 70.4 µM (≈ 30.7 µg/mL) | 1540.3 µL/min/mg | 15.9 ×10⁻⁶ cm/s | 4.4 ×10⁻⁶ cm/s | 0.27 | –

Further lines, with some results ahead:

IC50 (CSF1R) | Kd (cKIT) | IC50 [1] | IC50 [2] | solubility kinetic (Kinetic solubility) | MLM in vitro intrinsic clearing [3] | Papp A→B (MDCK permeability assay) | Papp B→A (MDCK permeability assay) | efflux ratio (MDCK permeability assay) | Compound | Cellular activity in Ba/F3 CSF1R cells (in words) ([1]; Ba/F3 cells dependent on constitutively active CSF1R)
6 nM | > 1000 nM | – | – | – | – | – | – | – | Cc1cccc(CN(C)c2ncnc3[nH]c(-c4ccc(NCc5ccccc5)nc4)cc23)c1 [Compound 14a, 6-(6-(Benzylamino)pyridin-3-yl)-N-methyl-N-(3-methylbenzyl)-7H-pyrrolo[2,3-d]pyrimidin-4-amine] | –
10.5 nM | > 1000 nM | 6.24 µM | 9.25 µM | – | – | – | – | – | COc1ccc(CNc2ccc(-c3cc4c(N(C)Cc5cccc(C)c5)ncnc4[nH]3)cn2)cc1 [Compound 12e, 6-(6-((4-Methoxybenzyl)amino)pyridin-3-yl)-N-methyl-N-(3-methylbenzyl)-7H-pyrrolo[2,3-d]pyrimidin-4-amine] | –
> 1000 nM | > 1000 nM | – | – | – | – | – | – | – | Cc1cccc(CN(C)c2ncnc3[nH]c(-c4ccc(NCc5cccc(C)c5C)nc4)cc23)c1 [Compound 12d, 6-(6-((2,3-Dimethylbenzyl)amino)pyridin-3-yl)-N-methyl-N-(3-methylbenzyl)-7H-pyrrolo[2,3-d]pyrimidin-4-amine] | –
